Assays:
[1] = molecular target: Human immunodeficiency virus type 1 protease (Human immunodeficiency virus 1) (UniProt Q72874); assay: Concentration required for inhibitory activity against HIV-1 protease at concentration of 10e-5 M by using HKARVL-(pNO2)F-EAnLSNH2 as substrate; No significant activity
[2] = molecular target: Human immunodeficiency virus type 1 protease (Human immunodeficiency virus 1) (UniProt Q72874); assay: Concentration required for inhibitory activity against HIV-1 protease at concentration of 10e-5 M by using TLNFPIS AMC as substrate; No significant activity
[3] = molecular target: Human immunodeficiency virus type 1 protease (Human immunodeficiency virus 1) (UniProt Q72874); assay: Concentration required for inhibitory activity against HIV-1 protease at concentration of 10e-5 M by using SQN-(pNO2)F-PIV as substrate; No significant activity

Measured: Activity

CCCCCCCC/C=C\CCCCCCCC(=O)N(CC(=O)N(CC(=O)N(Cc1ccccc1)CC(O)CN(Cc1ccccc1)C(=O)CN(C(=O)CN(C(=O)CCCCCCC/C=C\CCCCCCCC)C(C)C)C(C)C)C(C)C)C(C)C
inactive: [1] No significant activity | [2] No significant activity | [3] No significant activity

CC(C)N(CC(=O)N(Cc1ccccc1)CC(O)CN(Cc1ccccc1)C(=O)CN(C(=O)CN(C(=O)OC(C)(C)C)C(C)C)C(C)C)C(=O)CN(C(=O)OC(C)(C)C)C(C)C
inactive: [1] No significant activity | [2] No significant activity | [3] No significant activity

CC(C)N(CC(=O)N(Cc1ccccc1)CC(O)CN(Cc1ccccc1)C(=O)CN(C(=O)CN(C(=O)CCC(=O)O)C(C)C)C(C)C)C(=O)CN(C(=O)CCC(=O)O)C(C)C
inactive: [1] No significant activity | [2] No significant activity | [3] No significant activity

CC(C)NCC(=O)N(CC(=O)N(Cc1ccccc1)CC(O)CN(Cc1ccccc1)C(=O)CN(C(=O)CNC(C)C)C(C)C)C(C)C
inactive: [1] No significant activity | [2] No significant activity | [3] No significant activity

CC(C)N(CC(=O)N(Cc1ccccc1)CC(O)CN(Cc1ccccc1)C(=O)CN(C(=O)CN(C(=O)OCc1ccccc1)C(C)C)C(C)C)C(=O)CN(C(=O)OCc1ccccc1)C(C)C
inactive: [1] No significant activity | [2] No significant activity | [3] No significant activity

— ChEMBL document CHEMBL1150476, “Peptoid mimics of a C2-symmetric inhibitor of the HIV-1 protease” (Bioorg Med Chem Lett, 1994)
